{
  "source": "patent US20260224588A1",
  "about": "“BENZODIAZEPINONE-DERIVED INHIBITORS OF EGFR AND HER2” (The Research Foundation for the State University of New York, priority 2023, published 2026)",
  "key": {"MAP4K2": {"biological_target": "MAP4K2 (Homo sapiens, UniProt Q12851)", "assay": "KINOMEscan", "assay_type": "binding", "conditions": "1 μM of compound 4; read-out: POC"}, "AKT2": {"biological_target": "AKT2 (Homo sapiens, UniProt P31751)", "assay": "KINOMEscan", "assay_type": "binding", "conditions": "1 μM of compound 4; read-out: POC"}, "BTK": {"biological_target": "BTK (Homo sapiens, UniProt Q06187)", "assay": "KINOMEscan", "assay_type": "binding", "conditions": "1 μM of compound 4; read-out: POC"}, "NEK4": {"biological_target": "NEK4 (Homo sapiens, UniProt P51957)", "sequence (P51957 whole entry)": "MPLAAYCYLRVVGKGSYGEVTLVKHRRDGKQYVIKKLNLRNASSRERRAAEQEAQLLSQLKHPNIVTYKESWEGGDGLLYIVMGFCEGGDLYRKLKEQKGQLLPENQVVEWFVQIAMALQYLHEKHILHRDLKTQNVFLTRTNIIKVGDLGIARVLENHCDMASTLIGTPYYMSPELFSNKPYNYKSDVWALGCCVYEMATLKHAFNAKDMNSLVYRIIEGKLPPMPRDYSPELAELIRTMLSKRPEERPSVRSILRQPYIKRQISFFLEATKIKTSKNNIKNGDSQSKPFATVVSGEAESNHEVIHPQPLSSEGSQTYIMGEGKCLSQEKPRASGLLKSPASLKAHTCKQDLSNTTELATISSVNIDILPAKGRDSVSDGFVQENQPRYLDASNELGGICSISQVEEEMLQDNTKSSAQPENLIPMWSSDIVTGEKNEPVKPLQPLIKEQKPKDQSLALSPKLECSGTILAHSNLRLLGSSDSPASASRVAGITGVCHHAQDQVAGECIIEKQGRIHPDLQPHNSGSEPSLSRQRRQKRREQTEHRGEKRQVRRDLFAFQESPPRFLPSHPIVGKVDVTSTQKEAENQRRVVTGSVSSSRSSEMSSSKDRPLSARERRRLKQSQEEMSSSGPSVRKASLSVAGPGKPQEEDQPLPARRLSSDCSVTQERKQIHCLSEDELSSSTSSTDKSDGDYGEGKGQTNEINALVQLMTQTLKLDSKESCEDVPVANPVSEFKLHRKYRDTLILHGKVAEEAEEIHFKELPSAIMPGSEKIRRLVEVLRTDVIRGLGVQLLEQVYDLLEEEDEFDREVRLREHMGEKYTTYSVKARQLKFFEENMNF", "assay": "KINOMEscan", "assay_type": "binding", "conditions": "1 μM of compound 4; read-out: POC"}, "[1]": {"tested_on": "L858R EGFR mutant Ba/F3 cells", "assay": "Ba/F3 cellular antiproliferative experiments", "assay_type": "cell-based", "conditions": "Mus musculus, BaF3, 72 h, Ba/F3, 72 hours; read-out: Anti-proliferative EC50 ± SE, LR", "protocol": "(§1) Ba/F3 Cellular Antiproliferative Experiments. The parental Ba/F3 cells was a generous gift from the laboratory of Dr. David Weinstock (in 2014), Dr. Pasi Jänne (2020) and was used to generate the wildtype EGFR, wildtype HER2, L858R, and L858R/T790M EGFR mutant Ba/F3 cells. These cells were previously characterized as described. All Ba/F3 cells were cultured in RPMI1640 media with 10% fetal bovine serum and 1% penicillin and streptomycin. All cell lines were tested negative for Mycoplasma using Mycoplasma Plus PCR Primer Set (Agilent) and were passaged and/or used for no longer than 4 weeks for all experiments. Assay reagents were purchased from MilliporeSigma (Cat #R7017-5G). Ba/F3 cells were plated and treated with increasing concentrations of inhibitors in triplicate for 72 hours. Compounds were dispensed using the Tecan D300e Digital Dispenser. Cellular growth or the inhibition of growth was assessed by resazurin viability assay. All experiments were repeated at least 3 times and values were reported as an average of n=3 with standard deviation."}, "[2]": {"tested_on": "L858R/T790M EGFR mutant Ba/F3 cells", "assay": "Ba/F3 cellular antiproliferative experiments", "assay_type": "cell-based", "conditions": "Ba/F3, 72 hours, read-out: Anti-proliferative EC50 ± SE, LR/TM", "protocol": "as §1"}, "[3]": {"tested_on": "wildtype HER2 Ba/F3 cells", "assay": "Ba/F3 cellular antiproliferative experiments", "assay_type": "cell-based", "conditions": "Mus musculus, BaF3; Ba/F3, 72 hours; read-out: Anti-proliferative EC50 ± SE, HER2", "protocol": "as §1"}, "HIPK2": {"biological_target": "T1, HIPK2 (Homo sapiens, UniProt Q9H2X6)", "T1 construct": "purchased Eurofins DiscoverX Corporation", "assay": "KINOMEscan", "assay_type": "binding", "conditions": "1 μM of compound 4; read-out: POC"}, "NEK11": {"biological_target": "NEK11 (Homo sapiens, UniProt Q8NG66)", "sequence (Q8NG66 whole entry)": "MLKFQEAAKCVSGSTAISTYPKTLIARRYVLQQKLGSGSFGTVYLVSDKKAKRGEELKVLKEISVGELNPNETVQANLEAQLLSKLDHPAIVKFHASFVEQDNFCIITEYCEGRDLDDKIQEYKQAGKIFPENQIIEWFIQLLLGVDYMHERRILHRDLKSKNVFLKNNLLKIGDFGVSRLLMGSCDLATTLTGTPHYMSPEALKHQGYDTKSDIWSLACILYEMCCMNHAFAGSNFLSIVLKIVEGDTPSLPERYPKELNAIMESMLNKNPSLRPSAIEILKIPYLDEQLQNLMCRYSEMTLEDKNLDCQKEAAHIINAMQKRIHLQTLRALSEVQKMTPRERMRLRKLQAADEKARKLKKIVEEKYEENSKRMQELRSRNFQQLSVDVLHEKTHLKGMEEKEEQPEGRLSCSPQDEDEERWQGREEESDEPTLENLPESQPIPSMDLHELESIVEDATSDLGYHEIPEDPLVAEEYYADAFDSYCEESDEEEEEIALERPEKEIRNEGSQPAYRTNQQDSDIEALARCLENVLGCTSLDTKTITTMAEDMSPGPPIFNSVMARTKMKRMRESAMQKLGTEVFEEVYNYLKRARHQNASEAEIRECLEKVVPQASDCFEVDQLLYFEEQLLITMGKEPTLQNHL", "assay": "KINOMEscan", "assay_type": "binding", "conditions": "1 μM of compound 4; read-out: POC"}, "MET(M1250T)": {"biological_target": "MET(M1250T) (Homo sapiens, UniProt P08581, M1250T)", "sequence (P08581 25-1390 M1250T)": "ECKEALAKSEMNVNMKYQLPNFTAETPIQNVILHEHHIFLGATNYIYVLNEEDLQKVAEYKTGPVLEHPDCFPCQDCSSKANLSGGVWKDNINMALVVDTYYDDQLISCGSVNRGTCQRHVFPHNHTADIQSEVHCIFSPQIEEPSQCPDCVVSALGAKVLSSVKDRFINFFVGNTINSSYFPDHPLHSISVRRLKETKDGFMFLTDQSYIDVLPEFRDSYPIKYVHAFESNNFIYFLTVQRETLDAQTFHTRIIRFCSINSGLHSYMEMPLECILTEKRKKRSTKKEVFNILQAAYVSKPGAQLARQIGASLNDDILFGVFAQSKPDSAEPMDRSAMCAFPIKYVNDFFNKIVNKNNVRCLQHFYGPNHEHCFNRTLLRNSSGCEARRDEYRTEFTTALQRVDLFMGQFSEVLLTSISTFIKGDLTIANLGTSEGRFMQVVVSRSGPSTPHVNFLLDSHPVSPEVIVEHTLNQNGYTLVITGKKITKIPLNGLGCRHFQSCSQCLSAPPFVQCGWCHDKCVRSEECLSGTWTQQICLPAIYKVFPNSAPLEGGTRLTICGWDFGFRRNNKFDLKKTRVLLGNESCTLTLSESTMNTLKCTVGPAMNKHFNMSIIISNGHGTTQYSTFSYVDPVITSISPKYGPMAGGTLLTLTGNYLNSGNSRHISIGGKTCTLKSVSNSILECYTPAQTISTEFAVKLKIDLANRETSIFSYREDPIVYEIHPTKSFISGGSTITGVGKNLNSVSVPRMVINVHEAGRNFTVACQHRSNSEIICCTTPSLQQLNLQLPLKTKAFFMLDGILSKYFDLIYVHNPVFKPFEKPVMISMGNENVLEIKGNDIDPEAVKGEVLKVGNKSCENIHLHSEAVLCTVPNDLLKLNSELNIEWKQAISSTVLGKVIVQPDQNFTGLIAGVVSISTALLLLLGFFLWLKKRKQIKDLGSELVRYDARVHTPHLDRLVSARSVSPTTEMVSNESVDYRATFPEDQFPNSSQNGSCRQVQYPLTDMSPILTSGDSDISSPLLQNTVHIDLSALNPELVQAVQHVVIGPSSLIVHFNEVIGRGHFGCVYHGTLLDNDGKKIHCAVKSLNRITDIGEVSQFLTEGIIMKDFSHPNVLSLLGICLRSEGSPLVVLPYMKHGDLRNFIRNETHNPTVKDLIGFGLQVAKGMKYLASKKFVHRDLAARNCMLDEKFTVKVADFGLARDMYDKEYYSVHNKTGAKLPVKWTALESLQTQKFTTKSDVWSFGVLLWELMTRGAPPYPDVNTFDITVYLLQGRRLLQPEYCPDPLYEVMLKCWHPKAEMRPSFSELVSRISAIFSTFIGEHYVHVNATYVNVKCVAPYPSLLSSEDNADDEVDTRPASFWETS", "assay": "KINOMEscan", "assay_type": "binding", "conditions": "1 μM of compound 4; read-out: POC"}, "LOK": {"biological_target": "LOK (Homo sapiens, UniProt O94804)", "assay": "KINOMEscan", "assay_type": "binding", "conditions": "1 μM of compound 4; read-out: POC"}, "GCN2(Kin.Dom.2 + S808G)": {"biological_target": "T2, GCN2(Kin.Dom.2 + S808G) (Homo sapiens, UniProt Q9P2K8, S808G)", "T2 construct": "GCN2(Kin.Dom.2 + S808G); purchased Eurofins DiscoverX Corporation", "assay": "KINOMEscan", "assay_type": "binding", "conditions": "1 μM of compound 4; read-out: POC"}, "PIK3CA(M1043I)": {"biological_target": "PIK3CA(M1043I) (Homo sapiens, UniProt P42336, M1043I)", "assay": "KINOMEscan", "assay_type": "binding", "conditions": "1 μM of compound 4; read-out: POC"}, "EPHA1": {"biological_target": "T3, EPHA1 (Homo sapiens, UniProt P21709)", "T3 construct": "purchased Eurofins DiscoverX (KINOMEscan service)", "assay": "KINOMEscan", "assay_type": "binding", "conditions": "1 μM of compound 4; read-out: POC"}, "PIM1": {"biological_target": "PIM1 (Homo sapiens, UniProt P11309)", "sequence (P11309 whole entry)": "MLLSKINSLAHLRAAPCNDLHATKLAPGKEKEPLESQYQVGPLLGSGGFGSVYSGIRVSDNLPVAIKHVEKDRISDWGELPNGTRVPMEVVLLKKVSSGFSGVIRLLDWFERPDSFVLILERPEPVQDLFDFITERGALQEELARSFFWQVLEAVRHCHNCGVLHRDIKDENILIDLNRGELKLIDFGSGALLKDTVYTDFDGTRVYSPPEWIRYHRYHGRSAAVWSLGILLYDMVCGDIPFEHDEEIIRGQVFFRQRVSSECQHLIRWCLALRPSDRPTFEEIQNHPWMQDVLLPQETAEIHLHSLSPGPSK", "assay": "KINOMEscan", "assay_type": "binding", "conditions": "1 μM of compound 4; read-out: POC"}, "CDK2": {"biological_target": "CDK2 (Homo sapiens, UniProt P24941)", "assay": "KINOMEscan", "assay_type": "binding", "conditions": "1 μM of compound 4; read-out: POC"}, "CAMKK1": {"biological_target": "CAMKK1 (Homo sapiens, UniProt Q8N5S9)", "assay": "KINOMEscan", "assay_type": "binding", "conditions": "1 μM of compound 4; read-out: POC"}, "ITK": {"biological_target": "ITK (Homo sapiens, UniProt Q08881)", "sequence (Q08881 whole entry)": "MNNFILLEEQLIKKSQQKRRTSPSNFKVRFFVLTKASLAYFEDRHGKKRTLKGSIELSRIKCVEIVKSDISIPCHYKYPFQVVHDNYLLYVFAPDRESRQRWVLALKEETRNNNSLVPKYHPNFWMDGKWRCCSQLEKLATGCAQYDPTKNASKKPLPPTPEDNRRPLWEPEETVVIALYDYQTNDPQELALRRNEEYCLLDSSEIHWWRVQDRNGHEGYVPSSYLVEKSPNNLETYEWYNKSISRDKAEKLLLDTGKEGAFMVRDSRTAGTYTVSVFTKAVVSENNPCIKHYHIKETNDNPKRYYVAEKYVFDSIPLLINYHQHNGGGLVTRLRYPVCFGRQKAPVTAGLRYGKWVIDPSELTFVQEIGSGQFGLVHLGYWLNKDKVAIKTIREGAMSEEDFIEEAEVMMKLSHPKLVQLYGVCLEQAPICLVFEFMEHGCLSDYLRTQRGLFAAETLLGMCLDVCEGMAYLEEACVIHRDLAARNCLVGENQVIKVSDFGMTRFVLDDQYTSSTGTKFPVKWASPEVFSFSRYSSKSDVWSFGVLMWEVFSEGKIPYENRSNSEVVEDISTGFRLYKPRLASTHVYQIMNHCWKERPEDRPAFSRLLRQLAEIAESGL", "assay": "KINOMEscan", "assay_type": "binding", "conditions": "1 μM of compound 4; read-out: POC"}, "TSSK3": {"biological_target": "T4, TSSK3 (Homo sapiens, UniProt Q96PN8)", "T4 construct": "purchased Eurofins DiscoverX Corporation", "assay": "KINOMEscan", "assay_type": "binding", "conditions": "1 μM of compound 4; read-out: POC"}, "CSNK2A2": {"biological_target": "CSNK2A2 (Homo sapiens, UniProt P19784)", "assay": "KINOMEscan", "assay_type": "binding", "conditions": "1 μM of compound 4; read-out: POC"}, "BLK": {"biological_target": "BLK (Homo sapiens, UniProt P51451)", "assay": "KINOMEscan", "assay_type": "binding", "conditions": "1 μM of compound 4; read-out: POC"}, "FLT3": {"biological_target": "T5, FLT3 (Homo sapiens, UniProt P36888)", "T5 construct": "purchased Eurofins DiscoverX Corporation", "T5 sequence (P36888 27-993)": "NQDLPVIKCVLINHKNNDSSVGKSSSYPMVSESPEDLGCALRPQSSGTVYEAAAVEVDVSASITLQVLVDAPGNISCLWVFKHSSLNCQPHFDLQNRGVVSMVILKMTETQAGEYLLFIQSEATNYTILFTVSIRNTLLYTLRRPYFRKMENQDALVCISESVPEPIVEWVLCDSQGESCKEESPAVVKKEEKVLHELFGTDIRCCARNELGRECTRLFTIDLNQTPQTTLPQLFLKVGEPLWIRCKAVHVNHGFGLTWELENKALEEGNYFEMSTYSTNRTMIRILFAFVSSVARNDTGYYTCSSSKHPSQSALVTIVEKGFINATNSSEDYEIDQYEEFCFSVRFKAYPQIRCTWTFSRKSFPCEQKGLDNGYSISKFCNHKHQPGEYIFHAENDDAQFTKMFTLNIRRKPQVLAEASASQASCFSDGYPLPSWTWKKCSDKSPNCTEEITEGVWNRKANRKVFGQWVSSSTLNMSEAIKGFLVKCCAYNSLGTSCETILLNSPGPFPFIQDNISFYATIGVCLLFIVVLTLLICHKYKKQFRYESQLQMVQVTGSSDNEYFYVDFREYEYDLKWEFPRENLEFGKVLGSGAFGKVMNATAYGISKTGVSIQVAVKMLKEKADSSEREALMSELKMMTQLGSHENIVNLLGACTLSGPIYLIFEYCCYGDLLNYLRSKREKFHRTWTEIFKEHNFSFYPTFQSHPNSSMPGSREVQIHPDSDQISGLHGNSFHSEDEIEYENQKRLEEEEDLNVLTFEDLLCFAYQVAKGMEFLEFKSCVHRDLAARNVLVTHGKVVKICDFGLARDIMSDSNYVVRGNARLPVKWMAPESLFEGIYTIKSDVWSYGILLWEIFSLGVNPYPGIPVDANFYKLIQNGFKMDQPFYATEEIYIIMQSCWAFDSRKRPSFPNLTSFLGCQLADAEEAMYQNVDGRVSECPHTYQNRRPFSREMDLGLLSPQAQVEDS", "assay": "KINOMEscan", "assay_type": "binding", "conditions": "1 μM of compound 4; read-out: POC"}, "CDK4-cyclinD1": {"biological_target": "CDK4-cyclinD1 (Homo sapiens, UniProt P11802)", "assay": "KINOMEscan", "assay_type": "binding", "conditions": "1 μM of compound 4; read-out: POC"}, "CDKL3": {"biological_target": "CDKL3 (Homo sapiens, UniProt Q8IVW4)", "assay": "KINOMEscan", "assay_type": "binding", "conditions": "1 μM of compound 4; read-out: POC"}, "CDK5": {"biological_target": "CDK5 (Homo sapiens, UniProt Q00535)", "sequence (Q00535 whole entry)": "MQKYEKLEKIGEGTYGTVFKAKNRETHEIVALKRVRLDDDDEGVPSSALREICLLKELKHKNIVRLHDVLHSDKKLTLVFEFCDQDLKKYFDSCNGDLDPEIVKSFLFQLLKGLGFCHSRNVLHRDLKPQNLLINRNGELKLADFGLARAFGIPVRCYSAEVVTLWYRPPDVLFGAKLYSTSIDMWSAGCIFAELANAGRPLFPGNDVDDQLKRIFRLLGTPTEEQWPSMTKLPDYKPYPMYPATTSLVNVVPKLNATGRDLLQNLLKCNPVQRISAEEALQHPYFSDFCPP", "assay": "KINOMEscan", "assay_type": "binding", "conditions": "1 μM of compound 4; read-out: POC"}, "ERK3": {"biological_target": "T6, ERK3 (Homo sapiens, UniProt Q16659)", "T6 construct": "purchased Eurofins DiscoverX Corporation", "assay": "KINOMEscan", "assay_type": "binding", "conditions": "1 μM of compound 4; read-out: POC"}, "PIK3CA(I800L)": {"biological_target": "PIK3CA(I800L) (Homo sapiens, UniProt P42336, I800L)", "assay": "KINOMEscan", "assay_type": "binding", "conditions": "1 μM of compound 4; read-out: POC"}, "NEK7": {"biological_target": "T7, NEK7 (Homo sapiens, UniProt Q8TDX7)", "T7 construct": "purchased Eurofins DiscoverX Corporation (KINOMEscan)", "assay": "KINOMEscan", "assay_type": "binding", "conditions": "1 μM of compound 4; read-out: POC"}, "CAMK2A": {"biological_target": "CAMK2A (Homo sapiens, UniProt Q9UQM7)", "assay": "KINOMEscan", "assay_type": "binding", "conditions": "1 μM of compound 4; read-out: POC"}, "SNRK": {"biological_target": "T8, SNRK (Homo sapiens, UniProt Q9NRH2)", "T8 construct": "purchased Eurofins DiscoverX (KINOMEscan service)", "assay": "KINOMEscan", "assay_type": "binding", "conditions": "1 μM of compound 4; read-out: POC"}, "RIPK5": {"biological_target": "T9, RIPK5 (Homo sapiens, UniProt Q6XUX3)", "T9 construct": "purchased Eurofins DiscoverX Corporation (KINOMEscan screening service)", "assay": "KINOMEscan", "assay_type": "binding", "conditions": "1 μM of compound 4; read-out: POC"}},
  "note": "Like-named read-outs stand apart in the source and are kept apart here.",
  "data": [
    {"smiles": "C=CC(=O)Nc1ccc(OC)c(Nc2cc(-c3[nH]c(CC)nc3-c3cccc(NC(=O)c4cccc5c4NC(=O)c4ccccc4N5)c3)ccn2)c1", "note": "[Compound 4, N-(3-(5-(2-((5-Acrylamido-2-methoxyphenyl)amino)pyridin-4-yl)-2-ethyl-1H-imidazol-4-yl)phenyl)-11-oxo-10,11-dihydro-5H-dibenzo[b,e][1,4]diazepine-9-carboxamide]", "values": [
      {"measurement": "remaining binding at 1 µM", "setting": "MAP4K2", "value": 36, "unit": "%"},
      {"measurement": "remaining binding at 1 µM", "setting": "AKT2", "value": 91, "unit": "%"},
      {"measurement": "remaining binding at 1 µM", "setting": "BTK", "value": 54, "unit": "%"},
      {"measurement": "remaining binding at 1 µM", "setting": "NEK4", "value": 100, "unit": "%"},
      {"measurement": "EC50", "setting": "[1]", "value": "~200", "unit": "nM"},
      {"measurement": "EC50", "setting": "[2]", "value": "770 ± 390", "unit": "nM"},
      {"measurement": "EC50", "setting": "[2]; Mus musculus, BaF3, 72 h", "value": "~750", "unit": "nM"},
      {"measurement": "EC50", "setting": "[3]", "value": "1930 ± 1010", "unit": "nM"},
      {"measurement": "remaining binding at 1 µM", "setting": "HIPK2", "value": 100, "unit": "%"},
      {"measurement": "remaining binding at 1 µM", "setting": "NEK11", "value": 100, "unit": "%"},
      {"measurement": "remaining binding at 1 µM", "setting": "MET(M1250T)", "value": 89, "unit": "%"},
      {"measurement": "remaining binding at 1 µM", "setting": "LOK", "value": 49, "unit": "%"},
      {"measurement": "remaining binding at 1 µM", "setting": "GCN2(Kin.Dom.2 + S808G)", "value": 100, "unit": "%"},
      {"measurement": "remaining binding at 1 µM", "setting": "PIK3CA(M1043I)", "value": 55, "unit": "%"},
      {"measurement": "remaining binding at 1 µM", "setting": "EPHA1", "value": 100, "unit": "%"},
      {"measurement": "remaining binding at 1 µM", "setting": "PIM1", "value": 94, "unit": "%"},
      {"measurement": "remaining binding at 1 µM", "setting": "CDK2", "value": 95, "unit": "%"},
      {"measurement": "remaining binding at 1 µM", "setting": "CAMKK1", "value": 85, "unit": "%"},
      {"measurement": "remaining binding at 1 µM", "setting": "ITK", "value": 87, "unit": "%"},
      {"measurement": "remaining binding at 1 µM", "setting": "TSSK3", "value": 100, "unit": "%"},
      {"measurement": "remaining binding at 1 µM", "setting": "CSNK2A2", "value": 58, "unit": "%"},
      {"measurement": "remaining binding at 1 µM", "setting": "BLK", "value": 1.7, "unit": "%"},
      {"measurement": "remaining binding at 1 µM", "setting": "FLT3", "value": 100, "unit": "%"},
      {"measurement": "remaining binding at 1 µM", "setting": "CDK4-cyclinD1", "value": 94, "unit": "%"},
      {"measurement": "remaining binding at 1 µM", "setting": "CDKL3", "value": 100, "unit": "%"},
      {"measurement": "remaining binding at 1 µM", "setting": "CDK5", "value": 100, "unit": "%"},
      {"measurement": "remaining binding at 1 µM", "setting": "ERK3", "value": 100, "unit": "%"},
      {"measurement": "remaining binding at 1 µM", "setting": "PIK3CA(I800L)", "value": 100, "unit": "%"},
      {"measurement": "remaining binding at 1 µM", "setting": "NEK7", "value": 86, "unit": "%"},
      {"measurement": "remaining binding at 1 µM", "setting": "CAMK2A", "value": 65, "unit": "%"},
      {"measurement": "remaining binding at 1 µM", "setting": "SNRK", "value": 82, "unit": "%"},
      {"measurement": "remaining binding at 1 µM", "setting": "RIPK5", "value": 79, "unit": "%"}
    ]}
  ]
}
